{"source": "patent US8906395B2", "about": "“Pharmaceutical composition in which solubility of partially soluble tricyclic derivative is improved” (Jeil Pharmaceutical Co., Ltd., priority 2010, dated 2014)", "key": {"cancer cell lines": {"test_system": "cancer cell lines", "conditions": "cited from earlier work"}, "[1]": {"conditions": "compared to a colchicine or taxol injection; cited from earlier work"}, "[2]": {"assay": "Solubility of tricyclic derivative compound in solubilizing agents (HPLC)", "assay_type": "physicochemical", "procedure": "The solubility of the tricyclic derivative compound in a solubilizing agent was measured in the following manner."}, "tumor": {"test_system": "tumor", "conditions": "in vivo; cited from earlier work"}, "[3]": {"assay": "Solubility of tricyclic derivative compound in water (HPLC)", "assay_type": "physicochemical", "conditions": "distilled water, room temperature, stirred 24 hours, 0.2 μm filtrate", "procedure": "The solubility of the tricyclic derivative compound of Formula 1 in water was measured in the following manner.\n1.42 mg of the tricyclic derivative compound was dissolved in acetonitrile to prepare […] of a solution which was then serially diluted to prepare 50 μl/ml, 20 μl/ml and 10 μl/ml of standard solutions. 3-ethoxythiocolchicine as an internal standard was added to each of the standard solutions which were then analyzed by HPLC to measure the area ratio of the tricyclic derivative compound.\nThen, 1 g of the tricyclic derivative compound was added to 10 ml of distilled water to make a suspension which was then stirred at room temperature for 24 hours to sufficiently dissolve the compound. Then, the suspension was filtered through a 0.2 μm membrane to remove insoluble materials, and the remaining filtrate was analyzed by HPLC using 3-ethoxythiocolchicine as an internal standard to measure the area ratio of the tricyclic derivative compound, which was then compared with the area ratio of the standard curve shown in FIG. 1, thereby determining the concentration of the tricyclic derivative compound dissolved in water."}, "HUVEC cells": {"test_system": "HUVEC cells", "conditions": "cited from earlier work"}}, "data": [{"smiles": "CCOc1cc2c(c(OC)c1OC)-c1ccc(SC)c(=O)cc1[C@@H](NC(=O)c1cccc(CO[N+](=O)[O-])c1F)CC2", "note": "[tricyclic derivative compound]", "values": [{"measurement": "cytotoxicity against cancer cell lines", "setting": "cancer cell lines", "result": "very strong cytotoxicity"}, {"measurement": "toxicity in animal toxicity test", "setting": "[1]", "result": "significantly reduced toxicity"}, {"measurement": "Solubility", "setting": "[2]; PEG 400:water 0:100", "result": "Not detected"}, {"measurement": "solubility at 24 h", "setting": "[2]; PEG 400:water 10:90, aqueous with cosolvent or surfactant or cyclodextrin", "result": 0.21, "unit": "µg/mL"}, {"measurement": "solubility at 24 h", "setting": "[2]; PEG 400:water 20:80, aqueous with cosolvent or surfactant or cyclodextrin", "result": 2.94, "unit": "µg/mL"}, {"measurement": "solubility at 24 h", "setting": "[2]; PEG 400:water 30:70, aqueous with cosolvent or surfactant or cyclodextrin", "result": 1.24, "unit": "µg/mL"}, {"measurement": "solubility at 24 h", "setting": "[2]; PEG 400:water 40:60, aqueous with cosolvent or surfactant or cyclodextrin", "result": 53.9, "unit": "µg/mL"}, {"measurement": "solubility at 24 h", "setting": "[2]; PEG 400:water 50:50, aqueous with cosolvent or surfactant or cyclodextrin", "result": 189, "unit": "µg/mL"}, {"measurement": "solubility at 24 h", "setting": "[2]; PEG 400:water 100:0, organic solvent or mixture", "result": 52000, "unit": "µg/mL"}, {"measurement": "solubility at 24 h", "setting": "[2]; benzyl alcohol, organic solvent or mixture, solvent: Benzylalcohol", "result": "> 103000", "unit": "µg/mL"}, {"measurement": "solubility at 24 h", "setting": "[2]; organic solvent or mixture, solvent: Ethanol", "result": 35, "unit": "µg/mL"}, {"measurement": "solubility at 24 h", "setting": "[2]; organic solvent or mixture, solvent: Glycerin", "result": 4.8, "unit": "µg/mL"}, {"measurement": "solubility at 24 h", "setting": "[2]; organic solvent or mixture, solvent: N,N-dimethylacetamide", "result": "> 218000", "unit": "µg/mL"}, {"measurement": "solubility at 24 h", "setting": "[2]; organic solvent or mixture, solvent: Polyethylene glycol 400 (PEG 400)", "result": 52000, "unit": "µg/mL"}, {"measurement": "solubility at 24 h", "setting": "[2]; organic solvent or mixture, solvent: Propylene glycol", "result": 2300, "unit": "µg/mL"}, {"measurement": "Solubility", "setting": "[2]; solvent: 5% aqueous solution of hydrochloric acid", "result": "Not detected"}, {"measurement": "Solubility", "setting": "[2]; solvent: 5% aqueous solution of sodium hydrogen carbonate", "result": "Not detected"}, {"measurement": "Solubility", "setting": "[2]; solvent: 5% aqueous solution of sodium oxide", "result": "Not detected"}, {"measurement": "Solubility", "setting": "[2]; solvent: Water", "result": "Not detected"}, {"measurement": "tumor size and weight", "setting": "tumor", "result": "significantly reduces the tumor size and weight"}, {"measurement": "solubility in water", "setting": "[3]", "result": 0.00, "unit": "μl/ml"}, {"measurement": "angiogenesis inhibitory activity", "setting": "HUVEC cells", "result": "strong angiogenesis inhibitory activity"}]}]}
